Where two headings read alike, the source gives them in different places.
Molecular target: T1, human CCR7 (Homo sapiens, UniProt P32248)
T1 construct: expressed in transfected cells
T1 sequence (P32248 25-378): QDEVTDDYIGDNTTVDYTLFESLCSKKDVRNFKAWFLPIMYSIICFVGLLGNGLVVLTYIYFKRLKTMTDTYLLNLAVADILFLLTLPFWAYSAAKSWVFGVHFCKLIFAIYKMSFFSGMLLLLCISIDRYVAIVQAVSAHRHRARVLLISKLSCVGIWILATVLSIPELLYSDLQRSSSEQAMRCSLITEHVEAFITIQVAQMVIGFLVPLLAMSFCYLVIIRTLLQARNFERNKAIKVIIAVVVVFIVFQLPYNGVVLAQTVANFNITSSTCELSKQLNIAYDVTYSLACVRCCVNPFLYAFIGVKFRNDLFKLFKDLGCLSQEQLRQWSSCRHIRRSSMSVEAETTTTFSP
Assay: CCL19-induced calcium mobilization assay, U87.CD4 cells expressing CCR7
Type: cell-based
Conditions: for IC50: read-out: IC50 [μM] block CCL19 induced calcium signaling
Procedure: U87.CD4 cells that stably express either human CCR7, CXCR2, CCR5 or CXCR4 were seeded (20,000 cells/well) in gelatin-coated black-walled polystyrene 96-well plates with clear bottom and incubated overnight at 37°C and 5% CO2. […] Culture medium was removed, and cells were incubated for 45 min at room temperature in the dark. […] Exactly the same protocol was used to record calcium responses in Chinese hamster ovary (CHO)-K1 cells, upon stimulation with adenosine triphosphate (ATP, purchased from Sigma).

[1] = CCL19 induced calcium signaling
[2] = classification as decoy or active on CCR7
[3] = CCL19-induced calcium signaling
[4] = classification of tested compounds as decoy or active

SMILES	IC50 [1] [µM]	Decoy – 0 Active – 1 [2]	IC50 [3] [µM]	Decoy – 0 Active – 1 [4]
COc1ccc(S(=O)(=O)N(CC(=O)N2CCN(C)CC2)Cc2ccccc2)cc1C [C242, Cc1cc(ccc1OC)S(=O)(=O)N(Cc2ccccc2)CC(=O)N3CC[NH+](CC3)C]	> 50	0	–	–
CN(C)S(=O)(=O)c1ccc(-c2nnc(C(=O)NCc3ccccc3)o2)cc1 [C089, CN(C)S(=O)(=O)c1ccc(-c2nnc(C(=O)NCc3ccccc3)o2)cc1]	–	–	> 50	0
O=C1CCCc2[nH]c(=O)c(C(=O)NC3CCc4cc(F)ccc43)cc21 (stereo not shown) [C286, O=C1CCCc2[nH]c(=O)c(C(=O)NC3CCc4cc(F)ccc43)cc21]	> 50	0	–	–
COc1ccc([N+](=O)[O-])c(C(=O)N[C@@H](c2ncccc2C)C(C)C)c1 [C135, COc1ccc([N+](=O)[O-])c(C(=O)N[C@@H](c2ncccc2C)C(C)C)c1]	–	–	> 50	0
O=C(NCc1ccccc1F)N1CCC(c2ccc3c(c2)OCO3)C(O)C1 (stereo not shown) [C180, O=C(NCc1ccccc1F)N1CCC(c2ccc3c(c2)OCO3)C(O)C1]	> 50	0	–	–
C[C@@H](CNC(=O)Nc1ccnc(C(=O)N(C)C)c1)c1cccs1 [C119, C[C@@H](CNC(=O)Nc1ccnc(C(=O)N(C)C)c1)c1cccs1]	–	–	> 50	0
CC(C)[C@@H](NC(=O)CCN1CCCCCC1=O)c1ccccc1 [C112, CC(C)[C@@H](NC(=O)CCN1CCCCCC1=O)c1ccccc1]	–	–	> 50	0
O=C(c1cn2ccccc2n1)N(CCN1CCCC1)Cc1ccc(Cl)c(Cl)c1 [C280, O=C(c1cn2ccccc2n1)N(CCN1CCCC1)Cc1ccc(Cl)c(Cl)c1]	> 50	0	–	–
COc1ccc(N2CCN(c3c(NCc4cccc(Cl)c4)c(=O)c3=O)CC2)cc1 [C002, COc1ccc(N2CCN(c3c(NCc4cccc(Cl)c4)c(=O)c3=O)CC2)cc1]	–	–	> 50	0
CC(C)[C@@H](NC(=O)c1cccc(NC(=O)C2CC2)c1)c1ccccn1 [C155, CC(C)[C@@H](NC(=O)c1cccc(NC(=O)C2CC2)c1)c1ccccn1]	–	–	> 50	0
Cc1ccc(NC2=NC(=O)SC2=Cc2ccco2)cc1 [C078, Cc1ccc(NC2=[NH+]C(=O)SC2=Cc2ccco2)cc1]	–	–	> 10	0
O=C(NC1CCCCNC1=O)NC1CCSc2ccccc21 (stereo not shown) [C202, O=C(NC1CCCCNC1=O)NC1CCSc2ccccc21]	> 50	0	–	–
CC1CCc2c(F)cccc2C1NC(=O)c1n[nH]c(=O)[nH]1 (stereo not shown) [C222, CC1CCc2c(F)cccc2C1NC(=O)c1n[nH]c(=O)[nH]1]	> 50	0	–	–
COc1ccc(CC(C)(O)CNC(=O)NCc2cccc3ccccc23)cc1 (stereo not shown) [C192, COc1ccc(CC(C)(O)CNC(=O)NCc2cccc3ccccc23)cc1]	> 50	0	–	–
Cc1ccc(N2C(=O)C3C(C(=O)O)NC(c4ccccc4O)C3C2=O)cc1 (stereo not shown) [C186, Cc1ccc(N2C(=O)C3C(C(=O)[O-])[NH2+]C(c4ccccc4O)C3C2=O)cc1]	> 50	0	–	–
Cc1nc[nH]c1C(=O)NC1CC(=O)N(Cc2ccccc2Cl)C1 (stereo not shown) [C274, Cc1nc[nH]c1C(=O)NC1CC(=O)N(Cc2ccccc2Cl)C1]	> 50	0	–	–
Cc1cccc(N[C@H]2CS(=O)(=O)C[C@H]2OC(=O)c2ccccc2)c1 [C121, Cc1cccc(N[C@H]2CS(=O)(=O)C[C@H]2OC(=O)c2ccccc2)c1]	–	–	> 50	0
O=c1c(Nc2cc(C(F)(F)F)cc(C(F)(F)F)c2)c(Nc2cc(C(F)(F)F)cc(C(F)(F)F)c2)c1=O [C018, O=C1C(NC2=CC(C(F)(F)F)=CC(C(F)(F)F)=C2)=C(NC3=CC(C(F)(F)F)=CC(C(F)(F)F)=C3)C1=O]	–	–	> 50	0

SMILES	IC50 [1] [µM]	Decoy – 0 Active – 1 [2]	IC50 [3] [µM]	Decoy – 0 Active – 1 [4]
CN1CC[C@H](NC(=O)CN[C@@H](c2ccccc2)C(F)(F)F)C1=O [C107, CN1CC[C@H](NC(=O)CN[C@@H](c2ccccc2)C(F)(F)F)C1=O]	–	–	> 50	0
CC(C)Cc1cc(C(=O)N(Cc2ccccc2Cl)C(C)C)nc(=O)[nH]1 [C142, CC(C)Cc1cc(C(=O)N(Cc2ccccc2Cl)C(C)C)nc(=O)[nH]1]	–	–	> 50	0
COc1ccc(S(=O)(=O)N(CC(=O)N2CCCC2)c2ccc(Cl)cc2)cc1 [C263, COc1ccc(cc1)S(=O)(=O)N(CC(=O)N2CCCC2)c3ccc(cc3)Cl]	> 50	0	–	–
CCNC(=O)c1ccc(CNS(=O)(=O)c2ccc3c(c2)CCC3)cc1 [C261, CCNC(=O)c1ccc(cc1)CNS(=O)(=O)c2ccc3c(c2)CCC3]	> 50	0	–	–
O=c1oc2ccccc2n1CCCN1CCCC1c1ccc(O)cc1 (stereo not shown) [C189, O=c1oc2ccccc2n1CCC[NH+]1CCCC1c1ccc(O)cc1]	> 50	0	–	–
CN(C)C(=O)c1cccc(NC(=O)NCCc2ccccn2)c1 [C076, CN(C)C(=O)c1cccc(NC(=O)NCCc2ccccn2)c1]	–	–	> 10	0
O=c1c(NCc2cc(C(F)(F)F)cc(C(F)(F)F)c2)c(NCc2cc(C(F)(F)F)cc(C(F)(F)F)c2)c1=O [C017, O=C1C(NCC2=CC(C(F)(F)F)=CC(C(F)(F)F)=C2)=C(NCC3=CC(C(F)(F)F)=CC(C(F)(F)F)=C3)C1=O]	–	–	> 50	0
CC[C@@H](NC(=O)CCn1ccccc1=O)c1cc(F)ccc1F [C132, CC[C@@H](NC(=O)CCn1ccccc1=O)c1cc(F)ccc1F]	–	–	> 50	0
Cc1ccnc(NC(=S)NC(=O)c2cccc3ccccc23)c1 [C032, Cc1ccnc(NC(=S)NC(=O)c2cccc3ccccc23)c1]	–	–	> 30	0
CN(C)[C@@H]1CCCC[C@H]1Nc1c(NCc2cc(C(F)(F)F)cc(C(F)(F)F)c2)c(=O)c1=O [C021, CN(C)[C@@H]1CCCC[C@H]1NC(C2=O)=C(NCC3=CC(C(F)(F)F)=CC(C(F)(F)F)=C3)C2=O]	–	–	> 50	0
CCOC[C@H]1CCN(C(=O)Nc2cccn(CC(F)(F)F)c2=O)C1 [C104, CCOC[C@H]1CCN(C(=O)Nc2cccn(CC(F)(F)F)c2=O)C1]	–	–	> 50	0
NC(=S)Nc1n[nH]c2ccccc12 [C049, S=C(NC1=NNC2=C1C=CC=C2)N]	–	–	> 30	0
CN(C)[C@@H]1CCCC[C@H]1NC(=S)Nc1cc(C(F)(F)F)cc(C(F)(F)F)c1 [C039, S=C(N[C@H]1[C@H](N(C)C)CCCC1)NC2=CC(C(F)(F)F)=CC(C(F)(F)F)=C2]	–	–	> 50	0
CC[C@H](NC(=O)N(CCO)Cc1ccc(F)cc1)c1nc(C)no1 [C163, CC[C@H](NC(=O)N(CCO)Cc1ccc(F)cc1)c1nc(C)no1]	> 50	0	–	–
O=C1C[C@H](NC(=O)CCn2cccn2)CN1 [C145, O=C1C[C@H](NC(=O)CCn2cccn2)CN1]	–	–	> 50	0
COC(=O)/C(=C\NC(=S)N/C=C(/OC(=N)c1ccccc1)C(=O)OC)NC(=O)c1ccccc1 [C042, S=C(N/C=C(C(OC)=O)/NC(C1=CC=CC=C1)=O)N/C=C(C(OC)=O)/OC(C2=CC=CC=C2)=N]	–	–	> 30	0
COC(=O)c1ccccc1Nc1c(NCC2CC2)c(=O)c1=O [C016, COC(=O)c1ccccc1Nc1c(NCC2CC2)c(=O)c1=O]	–	–	> 50	0

— publication PMC8972196, “A Set of Experimentally Validated Decoys for the Human CC Chemokine Receptor 7 (CCR7) Obtained by Virtual Screening” (Frontiers in Pharmacology, 2022)
